Series [1] deals with High affinity cGMP-specific 3',5'-cyclic phosphodiesterase 9A (Homo sapiens, UniProt O76083). Description: Inhibition of PDE9A2 catalytic domain (unknown origin) using [3H]-cGMP/[3H]-cAMP as substrate after 15 mins by liquid scintillation counting analysis.
Series [2] addresses High affinity 3',5'-cyclic-AMP phosphodiesterase 7A (Homo sapiens, UniProt Q13946). Description: Inhibition of PDE7A1 catalytic domain (unknown origin) using [3H]-cGMP/[3H]-cAMP as substrate after 15 mins by liquid scintillation counting analysis.
Series [3] concerns the target High affinity cAMP-specific and IBMX-insensitive 3',5'-cyclic phosphodiesterase 8A (Homo sapiens, UniProt O60658). The series can be described thus: Inhibition of PDE8A1 catalytic domain (unknown origin) using [3H]-cGMP/[3H]-cAMP as substrate after 15 mins by liquid scintillation counting analysis.
Series [4] concerns the target cGMP-inhibited 3',5'-cyclic phosphodiesterase 3A (Homo sapiens, UniProt Q14432). The series can be described thus: Inhibition of PDE3A catalytic domain (unknown origin) using [3H]-cGMP/[3H]-cAMP as substrate after 15 mins by liquid scintillation counting analysis.
Series [5] in a line: Solubility of the compound in simulated intestinal fluid at pH 6.8 after 24 to 48 hrs by HPLC analysis. The series is classed as ADME. Conditions: simulated gi fluid.
A short description of series [6]: Plasma protein binding in human at 1 to 5 uM after 4 hrs by LC/MS/MS analysis. The conditions noted are these: read-out: PPB. The series is classed as ADME, cell-free.
Series [7] concerns the target cGMP-dependent 3',5'-cyclic phosphodiesterase (Homo sapiens, UniProt O00408). The series can be described thus: Inhibition of PDE2A3 catalytic domain (unknown origin) using [3H]-cGMP/[3H]-cAMP as substrate after 15 mins by liquid scintillation counting analysis.
Series [8] is described as follows: Solubility of the compound in simulated gastric fluid at pH 1.4 after 24 to 48 hrs by HPLC analysis. The series is classed as ADME. The conditions noted are these: simulated gi fluid.
Series [9] relates to Mus musculus. Description: Acute toxicity in KM mouse assessed as mortality at 1 to 1200 mg/kg, po measured up to 2 weeks. In kind it is organism-based. More on the design: dose 1-1200 mg/kg, route oral. The conditions noted are these: in vivo, 336 h.
Series [10] has as its system HepG2. Description: Hypoglycemic effect in human HepG2 cells assessed as reduction of 8-Br-cAMP/dexamethasone-induced PEPCK mRNA expression at 10 nM (reference value: 184%). In kind it is functional. More on the design: scale not given: the % may be the effect or the level left.
The subject of series [11] is Mus musculus. Description: Acute toxicity in KM mouse assessed as change in body weight at 1 to 1200 mg/kg, po measured up to 2 weeks. In kind it is organism-based. Also noted: dose 1-1200 mg/kg, route oral. The conditions noted are these: in vivo, 336 h.
For series [12], the system named is Mus musculus. The series can be described thus: Acute toxicity in KM mouse assessed as change in water/food consumption at 1 to 1200 mg/kg, po measured up to 2 weeks. Also noted: dose 1-1200 mg/kg, route oral. The series is classed as organism-based. Conditions: in vivo, 336 h.
Series [13] concerns HepG2. The series can be described thus: Hypoglycemic effect in human HepG2 cells assessed as reduction of 8-Br-cAMP/dexamethasone-induced G-6-Pase mRNA expression at 100 nM (reference value: 233%). More on the design: scale not given: the % may be the effect or the level left. In kind it is functional.
The subject of series [14] is Mus musculus. Description: Acute toxicity in KM mouse assessed as abnormal behaviour at 1 to 1200 mg/kg, po measured up to 2 weeks. In kind it is organism-based. Also noted: dose 1-1200 mg/kg, route oral. Conditions: in vivo, 336 h.
The subject of series [15] is HepG2. The series can be described thus: Hypoglycemic effect in human HepG2 cells assessed as reduction of 8-Br-cAMP/dexamethasone-induced G-6-Pase mRNA expression at 1000 nM (reference value: 233%). The series is classed as functional. More on the design: scale not given: the % may be the effect or the level left.
Series [16] is described as follows: Hepatic clearance in CD-1 mouse liver microsomes at […] incubated for 5 mins prior to NADPH addition measured after 30 mins by LC/MS/MS analysis. The series is classed as ADME.
The subject of series [17] is Liver. Description: Half life in CD-1 mouse liver microsomes at […] incubated for 5 mins prior to NADPH addition measured after 30 mins by LC/MS/MS analysis. The series is classed as ADME. The conditions noted are these: 0.5 h.
In series [18] the test system is HepG2. Description: Hypoglycemic effect in human HepG2 cells assessed as reduction of 8-Br-cAMP/dexamethasone-induced PEPCK mRNA expression at 1000 nM (reference value: 184%). The series is classed as functional. More on the design: scale not given: the % may be the effect or the level left.
Series [19] has as its system HepG2. Description: Hypoglycemic effect in human HepG2 cells assessed as reduction of 8-Br-cAMP/dexamethasone-induced PEPCK mRNA expression at 100 nM (reference value: 184%). In kind it is functional. More on the design: scale not given: the % may be the effect or the level left.
Series [20] can be described thus: Apparent clearance in CD-1 mouse liver microsomes at […] incubated for 5 mins prior to NADPH addition measured after 30 mins by LC/MS/MS analysis. The series is classed as ADME. Conditions: read-out: CL(app).
The subject of series [21] is HepG2. Description: Hypoglycemic effect in human HepG2 cells assessed as reduction of 8-Br-cAMP/dexamethasone-induced G-6-Pase mRNA expression at 10 nM (reference value: 233%). The series is classed as functional. Also noted: scale not given: the % may be the effect or the level left.
Series [22] deals with Mus musculus. Description: Acute toxicity in KM mouse assessed as poisoned symptom at 1 to 1200 mg/kg, po measured up to 2 weeks. The series is classed as organism-based. Also noted: dose 1-1200 mg/kg, route oral. Conditions: in vivo, 336 h.
A short description of series [23]: in vitro. Conditions: CD-1, mouse, liver microsomes.

Values after ≈ are worked out from the molar mass of the structure shown.

High affinity cAMP-specific and IBMX-insensitive 3',5'-cyclic phosphodiesterase 8A, sequence (O60658 whole entry, the tested form may be a part): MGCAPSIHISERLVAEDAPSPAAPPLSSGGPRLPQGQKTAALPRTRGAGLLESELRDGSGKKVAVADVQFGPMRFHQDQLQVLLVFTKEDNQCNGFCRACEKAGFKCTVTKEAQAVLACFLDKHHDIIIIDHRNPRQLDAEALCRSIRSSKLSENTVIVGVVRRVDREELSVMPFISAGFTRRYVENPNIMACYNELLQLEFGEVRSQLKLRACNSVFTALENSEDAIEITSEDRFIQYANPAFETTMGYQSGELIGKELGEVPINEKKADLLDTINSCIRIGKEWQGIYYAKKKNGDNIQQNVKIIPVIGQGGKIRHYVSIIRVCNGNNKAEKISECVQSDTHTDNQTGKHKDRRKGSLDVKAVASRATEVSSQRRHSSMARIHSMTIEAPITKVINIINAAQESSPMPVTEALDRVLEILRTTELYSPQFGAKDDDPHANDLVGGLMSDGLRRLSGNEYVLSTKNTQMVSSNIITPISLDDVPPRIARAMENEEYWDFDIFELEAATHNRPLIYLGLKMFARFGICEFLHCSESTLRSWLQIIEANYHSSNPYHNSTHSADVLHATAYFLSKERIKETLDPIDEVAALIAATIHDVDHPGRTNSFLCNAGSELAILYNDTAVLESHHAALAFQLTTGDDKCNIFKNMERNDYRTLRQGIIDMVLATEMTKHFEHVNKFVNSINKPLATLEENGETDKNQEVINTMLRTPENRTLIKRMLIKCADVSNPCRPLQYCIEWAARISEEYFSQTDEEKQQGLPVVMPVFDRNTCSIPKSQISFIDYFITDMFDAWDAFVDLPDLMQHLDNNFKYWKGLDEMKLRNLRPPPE
High affinity 3',5'-cyclic-AMP phosphodiesterase 7A, sequence (Q13946 whole entry, the tested form may be a part): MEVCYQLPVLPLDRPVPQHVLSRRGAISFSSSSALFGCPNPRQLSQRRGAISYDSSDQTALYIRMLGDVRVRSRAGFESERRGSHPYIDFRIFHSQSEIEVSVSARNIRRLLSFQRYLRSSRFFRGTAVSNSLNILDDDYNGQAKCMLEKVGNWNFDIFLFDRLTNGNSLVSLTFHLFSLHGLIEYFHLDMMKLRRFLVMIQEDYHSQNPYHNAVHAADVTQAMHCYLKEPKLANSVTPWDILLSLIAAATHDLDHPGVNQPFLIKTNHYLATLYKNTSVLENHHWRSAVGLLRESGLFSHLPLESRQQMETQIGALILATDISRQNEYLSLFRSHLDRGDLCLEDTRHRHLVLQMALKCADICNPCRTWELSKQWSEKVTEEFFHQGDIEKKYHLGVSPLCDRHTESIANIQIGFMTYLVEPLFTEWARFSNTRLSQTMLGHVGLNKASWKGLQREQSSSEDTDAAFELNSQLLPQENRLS
cGMP-dependent 3',5'-cyclic phosphodiesterase, sequence (O00408 whole entry, the tested form may be a part): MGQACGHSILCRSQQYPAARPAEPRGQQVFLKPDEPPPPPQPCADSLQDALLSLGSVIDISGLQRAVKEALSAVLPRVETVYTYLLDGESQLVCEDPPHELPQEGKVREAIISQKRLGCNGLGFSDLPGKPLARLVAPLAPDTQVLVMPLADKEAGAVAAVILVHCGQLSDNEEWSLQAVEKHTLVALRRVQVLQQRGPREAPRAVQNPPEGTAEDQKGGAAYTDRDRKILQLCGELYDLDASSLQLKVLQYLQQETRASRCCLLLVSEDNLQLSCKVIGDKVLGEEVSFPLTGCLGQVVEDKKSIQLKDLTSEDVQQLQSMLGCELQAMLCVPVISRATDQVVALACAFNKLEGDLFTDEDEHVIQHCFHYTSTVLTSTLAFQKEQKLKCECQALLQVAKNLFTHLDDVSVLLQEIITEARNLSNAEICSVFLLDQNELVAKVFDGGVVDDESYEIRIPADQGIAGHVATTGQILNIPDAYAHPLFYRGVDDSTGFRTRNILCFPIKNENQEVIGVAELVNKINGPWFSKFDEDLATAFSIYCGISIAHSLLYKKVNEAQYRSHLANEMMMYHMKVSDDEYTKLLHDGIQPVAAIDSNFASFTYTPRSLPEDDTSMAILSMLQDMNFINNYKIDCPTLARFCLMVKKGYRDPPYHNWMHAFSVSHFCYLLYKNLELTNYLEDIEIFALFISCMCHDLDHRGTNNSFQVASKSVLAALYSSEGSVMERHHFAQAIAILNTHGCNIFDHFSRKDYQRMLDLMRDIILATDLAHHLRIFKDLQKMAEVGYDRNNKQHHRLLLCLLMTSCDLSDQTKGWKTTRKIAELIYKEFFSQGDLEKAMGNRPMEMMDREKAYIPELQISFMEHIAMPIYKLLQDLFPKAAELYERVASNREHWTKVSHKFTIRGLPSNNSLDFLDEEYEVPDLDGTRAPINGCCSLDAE
cGMP-inhibited 3',5'-cyclic phosphodiesterase 3A, sequence (Q14432 whole entry, the tested form may be a part): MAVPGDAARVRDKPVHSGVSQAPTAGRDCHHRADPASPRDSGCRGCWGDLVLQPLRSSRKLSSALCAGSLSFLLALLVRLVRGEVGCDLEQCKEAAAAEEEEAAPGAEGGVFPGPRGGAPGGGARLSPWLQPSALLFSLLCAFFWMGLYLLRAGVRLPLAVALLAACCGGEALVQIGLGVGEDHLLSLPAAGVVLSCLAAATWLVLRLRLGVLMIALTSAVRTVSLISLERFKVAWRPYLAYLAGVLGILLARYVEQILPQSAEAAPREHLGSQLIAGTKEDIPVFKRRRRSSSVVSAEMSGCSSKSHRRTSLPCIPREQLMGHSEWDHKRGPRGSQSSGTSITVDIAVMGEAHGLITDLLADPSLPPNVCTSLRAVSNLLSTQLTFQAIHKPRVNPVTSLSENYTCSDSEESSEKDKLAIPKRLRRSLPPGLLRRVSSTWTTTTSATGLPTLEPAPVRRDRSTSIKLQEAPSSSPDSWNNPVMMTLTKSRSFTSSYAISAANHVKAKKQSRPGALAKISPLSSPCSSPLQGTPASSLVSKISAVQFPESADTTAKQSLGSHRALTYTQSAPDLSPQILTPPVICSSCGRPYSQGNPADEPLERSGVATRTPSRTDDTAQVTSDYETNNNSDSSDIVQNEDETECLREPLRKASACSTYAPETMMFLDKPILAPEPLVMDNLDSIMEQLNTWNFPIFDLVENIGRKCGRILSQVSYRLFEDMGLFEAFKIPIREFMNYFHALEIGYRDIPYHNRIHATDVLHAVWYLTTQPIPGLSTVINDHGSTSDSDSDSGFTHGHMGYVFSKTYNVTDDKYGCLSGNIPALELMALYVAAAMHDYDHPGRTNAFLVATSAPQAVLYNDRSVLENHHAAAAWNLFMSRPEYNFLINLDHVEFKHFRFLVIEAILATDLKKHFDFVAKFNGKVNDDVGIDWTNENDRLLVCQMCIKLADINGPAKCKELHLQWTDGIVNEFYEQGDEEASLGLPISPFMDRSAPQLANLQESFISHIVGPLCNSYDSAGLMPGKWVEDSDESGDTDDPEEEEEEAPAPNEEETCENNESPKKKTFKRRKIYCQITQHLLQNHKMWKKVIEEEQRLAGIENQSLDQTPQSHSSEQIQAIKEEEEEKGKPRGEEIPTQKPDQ
High affinity cGMP-specific 3',5'-cyclic phosphodiesterase 9A, sequence (O76083 whole entry, the tested form may be a part): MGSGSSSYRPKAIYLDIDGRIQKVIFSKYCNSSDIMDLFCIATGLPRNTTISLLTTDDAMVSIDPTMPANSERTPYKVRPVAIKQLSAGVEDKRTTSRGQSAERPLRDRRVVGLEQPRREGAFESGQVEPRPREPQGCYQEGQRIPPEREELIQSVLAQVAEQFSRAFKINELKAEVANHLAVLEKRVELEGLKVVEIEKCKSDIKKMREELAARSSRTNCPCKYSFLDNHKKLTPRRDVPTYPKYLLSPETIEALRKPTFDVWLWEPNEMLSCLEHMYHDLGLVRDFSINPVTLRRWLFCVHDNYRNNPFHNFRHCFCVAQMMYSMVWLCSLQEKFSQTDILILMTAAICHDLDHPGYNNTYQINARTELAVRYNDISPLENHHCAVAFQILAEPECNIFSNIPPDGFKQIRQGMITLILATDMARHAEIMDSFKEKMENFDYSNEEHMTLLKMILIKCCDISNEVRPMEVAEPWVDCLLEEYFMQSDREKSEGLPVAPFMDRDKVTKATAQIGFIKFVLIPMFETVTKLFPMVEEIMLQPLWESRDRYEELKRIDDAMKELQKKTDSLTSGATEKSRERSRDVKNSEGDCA

`COc1ccc(NC(=O)[C@@H](C)Nc2nc3c(cnn3-c3ccccc3Cl)c(=O)[nH]2)cc1`: the IC50 in series [1] was 0.0064 µM; in [2] it was 51.2 µM; in [3] it was > 100 µM.

For `COc1ccc(NC(=O)[C@H](C)Nc2nc3c(cnn3-c3ccccc3Cl)c(=O)[nH]2)cc1`, the IC50 in series [4] is > 50 µM; in series [2] it was > 100 µM; in series [7], > 50 µM; in [3] it was > 100 µM. For the same molecule, the solubility was 13 µg/mL (≈ 29.6 µM) in series [5] and 8 µg/mL (≈ 18.2 µM) in series [8]. In [6], the fraction unbound at 4 h, up to 5 µM was < 0.057.

Turning to `COc1ccc(NC(=O)[C@@H](C)Nc2nc3c(cnn3C3CCCC3)c(=O)[nH]2)cc1`, the Activity entry in series [9] was “Non-toxic”; in series [10], 108%; in series [11], “Non-toxic”; in series [12], “Non-toxic”; in series [13], 93.2%; in series [14], “Non-toxic”. In addition, the Activity is 97.2% in series [15]; 105% in series [18]; 96.5% in series [19]; 98.4% in [21]; “Non-toxic” in series [22]. For the same molecule, in [6], the fraction unbound at 4 h, up to 5 µM is < 0.057. The CLhep predicted at […] in [16] is 65.8 mL/min/kg. The concentration for half-maximal inhibition (IC50) in series [7] is 13 µM; in series [3], > 100 µM. In series [17], this molecule displayed a t1/2 of 22.3 min. The molecule further had a solubility in [8] of 26 µg/mL (≈ 65.6 µM). Further, the CLint scaled at […] in series [20] came out at 244 mL/min/kg.

Take `COc1ccc(NC(=O)[C@H](C)Nc2nc3c(cnn3C3CCCC3)c(=O)[nH]2)cc1`: the solubility in series [5] is 31 µg/mL (≈ 78.2 µM); in [8], 23 µg/mL (≈ 58 µM). In series [6], the fraction unbound at 4 h, up to 5 µM was < 0.057. In series [3], the IC50 was > 100 µM.

Take `C[C@]12CC[C@H]3[C@@H](CCC4=CC(=O)CC[C@@]43C)[C@@H]1CC[C@@H]2O` [TESTOSTERONE]: in [16], the CLhep predicted at […] is 87.1 mL/min/kg. Besides, the t1/2 in [17] was found to be 2 min. Besides, the CLint scaled at […] in [20] turned out to be 2730 mL/min/kg. For the same molecule, the hepatic extraction ratio at 0.5 h, […] in [23] was 0.968.

As for `CC(=O)CC(c1ccccc1)c1c(O)c2ccccc2oc1=O` (stereo not drawn) [WARFARIN], the CLhep predicted at […] in [16] is 23 mL/min/kg. In [20], the CLint scaled at […] worked out at 30.9 mL/min/kg.
